Experimental data taken from US7855232B2, “Organoselenium compound for cancer chemoprevention” (LKT Laboratories, Inc., priority 2001, dated 2010).
Marks after values point to notes of the source that are not given here.

How the values were obtained:
[1] = tested on: Glutathione S-Transferase; experiment: Glutathione S-transferase (GST) activity in tissue cytosol of treated mice, CDNB substrate; type: in vivo, Female A/J mice; settings: for Ratio Test/con (GST): gavage; for GST act.: gavage in corn oil
Experimental: The activity of cytosolic was assayed according to the method of Habig et al. using 1-chloro-2,4-dinitrobenzene (CDNB) as the substrate. Habig et al, J. Biol. Chem. 249:7130-7139 (1974). The complete solution contains, in a total volume of 2.0 mL, 0.1 M phosphate buffer, pH 6.5, 5 mM glutathione, 1 mM CDNB, and 20 μL of the cytosol. The reaction was monitored at 340 nm in a Beckman Model DU65 UV-VIS spectrophotometer. Assays were performed at 30° C. Complete assay mixture without the cytosolic enzyme was used as the reference blank. Data as analyzed by the Student's “t” test and P values were obtained in comparison to the control.

aberrant crypts (AC) = experiment: Inhibition of DMH-induced aberrant crypt (AC) formation in colon; type: in vivo, Female CF1 mice; settings: with DMH
Excerpt: Precancerous lesions called aberrant crypts (AC) are used as a marker for colon carcinogenesis. Mice and rats, when exposed to colon-specific carcinogen, develop preneoplastic changes in colon crypts which leads to malignancy through dysplasia-carcinoma sequence. […] McLellan et al., Cancer Res. 48:6183-6186 (1988); McLellan et al., Cancer Res. 48:2311-2315 (1988).
The effect of colon-specific carcinogenesis is typically seen in the induction of AC formation in less than two weeks. AC formation is dose dependent and can be quantitated without elaborate instrumentation. In view of the short time-frame required to get quantifiable results, this bio-assay is a useful prescreening tool for the evaluation of chemopreventative efficacy of compounds that are effective against colon cancer. The protocol for aberrant crypts is shown below:
Female CF1 mice, 3 weeks of age, were purchased from Harlan Sprague-Dawley, Indianapolis, 1N. They were housed, 5 mice per cage, in temperature and humidity-controlled animal quarters with 12 hours light/dark cycle and fed AIN 76A semipurified diet until the ent of the experiment. Water was given ad libitim. The animals were separated into experimental and control groups. The test compounds 0.03-0.04 mmol/kg body weight dissolved in 0.3 mL corn oil, were given by gavage one per day for 8 days. One hour after the inhibitors administration on the 4th and 8th days, 0.4 mg of DMH in 0.2 mL of 0.001 M EDTA, adjusted to pH 6.5 with sodium bicarbonate, was given by gavage. Starting on the 9th day, the inhibitors were given once every other day for an additional 3 weeks. This regimen of inhibitor administration ensures the coverage both the initiation and post initiation periods of carcinogen exposure.
At the end of the 3 week period, the animals were sacrificed and the colons removed. The starting and terminating weights of the animals were recorded. The procedures for the determination of aberrant crypts were those reported by Bird (Cancer Letters 37:147-151 (1987)). The mouse colon including the caecum was removed, rinsed with PBS, and opened longitudinally. The colon contents was removed by washing with PBS. The colon was spread mucosal side up on a piece of filter paper and fixed in buffered formalin overnight. It was then stained with 0.2% methylene blue in PBS for 60 min. The AC foci was read under light microscope. The AC are topographically distinguished by their increased size, increased pericryptal zone, and thicker and deeply stained epithelial lining compared to normal crypts. The number of foci and AC in the colorectal and caecal parts of the colon were recorded separately. The significance of the data was determined by the analysis of variance method. The significance of the incidence of aberrant crypts bearing animals was analyzed by the X^2 test. The aberrant crypts were examined histologically to verify the dysplastic nature of the changes in animals treated with carcinogens and those treated with carcinogens and inhibitors.

GSH = experiment: Glutathione (GSH) concentration in tissues of treated mice, HPLC; type: in vivo, Female A/J mice; settings: liver; for Ratio Test/con (GSH): gavage; for GSH conc.: gavage in corn oil
Experimental: GSH was quantitated by modification of the procedure Siller-Cepeda et al. Plant Cell Physiol. 32:1179-1185 (1991). Aliquots of tissue homogenates were mixed with equal volumes of 20% PCA containing 2 mM BPDS. Vortex, centrifuge at 7800×g for 15 minutes at 4° C. and 250 μl supernatant transferred into a microfuge tube containing 25 μl of γ-glu-glu as internal standard. The samples were carboxymethylated with 25 μl of 100 mM iodoacetic acid dissolved in 0.2 mM m-cresol purple sodium salt solution. The pH of the solution was adjusted to 9-10 by adding 350 μl of KOH (2M)-KHCO3 (2.4 M) mixture and incubated in the dark for 15 minutes. After carboxymethylation, the samples were derivatized with 500 μl of 1% dinitrofluorobenzene (DNFB) and kept in the dark at 4° C. overnight. The samples were centrifuged at 13,000×g for 15 minutes, filtered through 0.2 μm filter, and were analyzed with a SHIMADZU two-pump gradient HPLC system. Samples were injected by a SHIMADZU SIL-10AV Autoinjector onto a Varian 3-aminopropyl MICROSORB-MV column (4.6×250 mm) operated at ambient temperature with a flow rate of 1 ml/min. Absorbance of the dinitrophenyl derivatives was monitored at 365 nm. The amount of GSH was calculated from a standard curve using γ-glu-glu as internal standard.

[2] = colon, dose 0.02 mmol/Kg body weight
[3] = colon, dose 0.04 mmol/Kg body weight
[4] = forestomach, dose 0.02 mmol/Kg body weight
[5] = forestomach, dose 0.04 mmol/Kg body weight
[6] = liver, dose 0.02 mmol/Kg body weight
[7] = liver, dose 0.04 mmol/Kg body weight
[8] = lung, dose 0.02 mmol/Kg body weight
[9] = lung, dose 0.04 mmol/Kg body weight
[10] = small intestinal mucosa, dose 0.02 mmol/Kg body weight
[11] = small intestinal mucosa, dose 0.04 mmol/Kg body weight

Compound: N#C[Se]Cc1ccc(C[Se]C#N)s1 [(2) TDMSC, thienyl-2,5-di-methylene selenocyanate]
- Ratio Test/con (GST) [1, 2]: 1.00
- GST act. [1, 2]: 0.40 ± 0.04 μmol/min mg protein
- Ratio Test/con (GST) [1, 3]: 1.00
- GST act. [1, 3]: 0.40 ± 0.01 μmol/min mg protein
- Ratio Test/con (GST) [1, 4]: 1.15
- GST act. [1, 4]: 0.90 ± 0.12 μmol/min mg protein
- Ratio Test/con (GST) [1, 5]: 1.15
- GST act. [1, 5]: 0.90 ± 0.11 ^g μmol/min mg protein
- Ratio Test/con (GST) [1, 6]: 1.27
- GST act. [1, 6]: 1.43 ± 0.2 ^g μmol/min mg protein
- Ratio Test/con (GST) [1, 7]: 1.12
- GST act. [1, 7]: 1.26 ± 0.21 μmol/min mg protein
- Ratio Test/con (GST) [1, 8]: 1.04
- GST act. [1, 8]: 0.49 ± 0.07 μmol/min mg protein
- Ratio Test/con (GST) [1, 9]: 1.15
- GST act. [1, 9]: 0.54 ± 0.09 μmol/min mg protein
- Ratio Test/con (GST) [1, 10]: 1.03
- GST act. [1, 10]: 0.35 ± 0.01 μmol/min mg protein
- Ratio Test/con (GST) [1, 11]: 1.18
- GST act. [1, 11]: 0.40 ± 0.16 μmol/min mg protein
- ACF/Colon (aberrant crypts (AC); low dose 0.03 mmol/kg body weight, gavage, DMH alone 1.13): 0.50
- AC/Foci (aberrant crypts (AC); low dose 0.03 mmol/kg body weight, gavage, DMH alone 1.28): 1.00
- AC/Colon (aberrant crypts (AC); low dose 0.03 mmol/kg body weight, gavage, DMH alone 1.44): 0.50
- Total ACF (aberrant crypts (AC); low dose 0.03 mmol/kg body weight, gavage, DMH alone 18): 4
- Total AC (aberrant crypts (AC); low dose 0.03 mmol/kg body weight, gavage, DMH alone 23): 4
- % animals (aberrant crypts (AC); low dose 0.03 mmol/kg body weight, gavage, DMH alone 43.7): 24.0%
- protection (inhibition of aberrant crypt formation) (aberrant crypts (AC); low dose): more than 50%
- Ratio Test/con (GSH) (GSH; dose 0.02 mmol/Kg body weight): 1.28
- GSH conc. (GSH; dose 0.02 mmol/Kg body weight): 4.91 ± 1.16 μmol/gm tissue weight
- Ratio Test/con (GSH) (GSH; dose 0.04 mmol/Kg body weight): 1.20
- GSH conc. (GSH; dose 0.04 mmol/Kg body weight): 4.60 ± 2.13 μmol/gm tissue weight
